Where “and” joins values, the source holds several entries; their conditions need not be identical. Identical values can stand only once.
Experiments:
Format in all cases: binding
HypNA-pPNA 16-mer [1] = experiment: Melting curve analysis, mismatch discrimination in moderate salt, PNA/DNA; details: for Tm, ° C. PNA/DNA: 20 millimolar Tris-HCl, pH 7.5, 150 millimolar NaCl, 10 millimolar MgCl2, oligomers 1:1, * = Tms not reliable, complex probably unstable; for ΔTm PNA/DNA: 150 millimolar NaCl, relative to no mismatches
Excerpt: (§1) The sequence of the […] oligomer was: Th-Gp-Gh-Tp-Ch-Tp-Ch-Ap-Ah-Gp-Th-Cp-Ah-Gp-Th-Gp-dT, where the subscript h denotes a “HypNA” monomeric unit and the subscript p denotes a “pPNA” monomeric unit. […] For performing DNA-DNA control hybridizations, a DNA oligomer with a sequence identical to that of the […] oligomer, […]) was also synthesized. To perform the melting curve analysis, the DNA oligomers and […] oligomers were mixed at a 1:1 in a volume of 400 microliters. For nucleic acid hybridization controls, DNA oligomers and complementary (or partially complementary) DNA oligomers, were mixed at a 1:1 ratio in a volume of 400 microliters. The hybridization solutions contained 20 millimolar Tris-HCl, pH 7.5, 150 millimolar NaCl, and 10 millimolar MgCl2. The mixtures of DNA oligomers or DNA oligomers with […] oligomers were then incubated at 90 degrees C. for 3 minutes and allowed to cool gradually to room temperature overnight. […] Changes in the absorbance at 260 nanometers were recorded, and a Tm was calculated for each combination of oligomers. In some cases, there was no discernible Tm, which we interpret to be the result of the inability of particular oligomer pairs to form stable complexes.

[2] = system: DNA oligomer 5′-TGGTCTCACGTCAGTG-3′ (SEQ ID NO: 19); experiment: Melting curve analysis, mismatch discrimination in moderate salt, DNA/DNA control; details: for Tm, ° C. DNA/DNA: 20 millimolar Tris-HCl, pH 7.5, 150 millimolar NaCl, 10 millimolar MgCl2, oligomers 1:1; for ΔTm DNA/DNA: 150 millimolar NaCl, relative to no mismatches
Excerpt: as §1

16 mer poly A RNA = experiment: Melting curve analysis of poly T probes hybridized to poly A RNA; details: 20 mM Tris, pH 7.5, 100 mM NaCl, 10 mM MgCl2; RNA to PNA oligomer 1:2 for PNA analogues
Excerpt: (§2) In this experiment we compared hybridized complexes of DNA/DNA, DNA/PNAs, RNA/DNA and PNA/PNAs, for the stability of the complex formed. Poly A DNA oligomers, poly T DNA oligomers, poly A RNA oligomers, and poly T RNA oligomers were synthesized by solid phase synthesis. PNA oligonucleotide analogues were synthesized by solid phase synthesis using methods disclosed herein. The classical PNA Poly T oligomer consisted of a PNA having a N-(2-aminoethyl)glycine backbone. […] The 1:2 Poly T PNA consisted of: biotin-linker-(HypNA-pPNA-pPNA)5-dT. The 1:3 Poly T PNA consisted of: biotin-linker-[(HypNA-pPNA)-(pPNA-pPNA)]4-dT.
(§3) To hybridize DNA/DNA and DNA/RNA oligomers, equal amounts of oligonucleotide were mixed in 20 mM Tris, pH 7.5, 100 mM NaCl, 10 mM MgCl2, incubated at 90° C. for 3 minutes and left to cool gradually to room temperature overnight. Samples were then heated at a rate of 1° C. per minute from 20° C. to 100° C., using a spectrophotometer linked to a thermal control unit. Changes in A260 were recorded and a Tm value was calculated for each complex.
(§4) To hybridize PNA oligonucleotide analogues to DNA and RNA oligomers, the ratio of DNA (or RNA) oligomer to PNA oligomer was 1:2. This 1:2 ratio was used to promote the formation of a triplex structure, with 2 PNA oligomers binding to each DNA oligomer.
(§5) These samples were hybridized and treated in a identical manner to the DNA/DNA and DNA/RNA complexes to obtain Tm values.

16 mer poly A DNA = experiment: Melting curve analysis of poly T probes hybridized to poly A DNA; details: 20 mM Tris, pH 7.5, 100 mM NaCl, 10 mM MgCl2; DNA to PNA oligomer 1:2 for PNA analogues
Excerpt: as §2, §3, §4, §5

HypNA-pPNA 16-mer [3] = experiment: Melting curve analysis, mismatch discrimination in high salt, PNA/DNA; details: for Tm, ° C. PNA/DNA: 20 millimolar Tris-HCl, pH 7.5, 500 millimolar NaCl, 10 millimolar MgCl2, oligomers 1:1; for ΔTm PNA/DNA: 500 millimolar NaCl, relative to no mismatches
Excerpt: (§6) The sequence of the […] oligomer was: Th-Gp-Gh-Tp-Ch-Tp-Ch-Ap-Ah-Gp-Th-Cp-Ah-Gp-Th-Gp-. […] For performing DNA-DNA control hybridizations, a DNA oligomer with a sequence identical to that of the […] oligomer was also synthesized. To perform the melting curve analysis, the DNA oligomers and […] oligomers were mixed at a 1:1 ratio in a volume of 400 microliters. For nucleic acid hybridization controls, DNA oligomers and complementary (or nearly complementary) DNA oligomers, were mixed at a 1:1 ratio in a volume of 400 microliters. The hybridization solutions contained 20 millimolar Tris-HCl, pH 7.5, 500 millimolar NaCl, and 10 millimolar MgCl2. The mixtures of DNA oligomers or DNA oligomers with […] oligomers were then incubated at 90 degrees C. for 3 minutes and allowed to cool gradually to room temperature overnight. […] Changes in the absorbance at 260 nanometers were recorded, and a Tm was calculated for each combination of oligomers. In some cases, there was no discernible Tm, which we interpret to be the result of the inability of particular oligomer pairs to form stable complexes.

[4] = system: DNA oligomer with a sequence identical to that of the HypNA-pPNA oligomer; experiment: Melting curve analysis, mismatch discrimination in high salt, DNA/DNA control; details: for ΔTm DNA/DNA: 500 millimolar NaCl, relative to no mismatches; for Tm, ° C. DNA/DNA: 20 millimolar Tris-HCl, pH 7.5, 500 millimolar NaCl, 10 millimolar MgCl2, oligomers 1:1
Excerpt: as §6

[5] = system: Oligonucleotide probes labeled with ^32P (DNA probe); experiment: Hybridization of support-bound polyacrylamide-oligomer co-polymers to labeled oligonucleotide probes; effect of single-base mismatches; details: 0.1 M NaCl, 10 mM sodium phosphate (pH 7), 5 mM EDTA, 10 mM MgCl2, 0.1% sodium dodecyl sulfate

Substance | ΔTm PNA/DNA (HypNA-pPNA 16-mer [1]) | Tm, ° C. DNA/DNA [2] | ΔTm DNA/DNA [2] | Tm, ° C. PNA/DNA (HypNA-pPNA 16-mer [3]) | Tm, ° C. DNA/DNA [4] | also measured
5′-CAC TGA CTT GAG TCC A -3′ (SEQ ID NO: 23) (DNA CACTGACTTGAGTCCA; DNA, backbone not given here) [Mismatch C, DNA oligomer with mismatch to the HypNA-pPNA 16-mer] | 9.9 °C and 8.7 °C | 51.6 °C and 53.8 °C | 10 °C and 7.9 °C | – | – | Tm, ° C. PNA/DNA (HypNA-pPNA 16-mer [1]): 48.3 °C and 49.2 °C
biotin-linker-(HypNA-pPNA)7-dT [1:1 Poly T PNA-analog] | – | – | – | – | – | Target: 16 mer poly A RNA Tm, ° C. (16 mer poly A RNA): 73.0 °C and 72.7 °C; Target: 16 mer poly A DNA Tm, ° C. (16 mer poly A DNA): 81.1 °C and 81.9 °C
5′-CAC GGA GTT GAG ACC A -3′ (SEQ ID NO: 32) (DNA CACGGAGTTGAGACCA; DNA, backbone not given here) [Mismatch M, DNA oligomer with mismatches to the HypNA-pPNA 16-mer] | – | 50.2 °C and 45.2 °C | 11.5 °C and 16.4 °C | – | – | –
5′-CAC TGA ATT GAG ACC A -3′ (SEQ ID NO: 30) (DNA CACTGAATTGAGACCA; DNA, backbone not given here) [Mismatch J, DNA oligomer with mismatch to the HypNA-pPNA 16-mer] | – | 52.3 °C and 52.5 °C | 9.3 °C and 9.2 °C | – | – | –
5′-CAC TGA GTT GAG ACC A -3′ (SEQ ID NO: 21) [Mismatch A] | 13.1 °C and 12.5 °C | 51.7 °C and 51.8 °C | 9.9 °C | 41.4 °C and 41.1 °C | – | ΔTm PNA/DNA (HypNA-pPNA 16-mer [3]): 17 °C; ΔTm DNA/DNA [4]: 7 °C; Tm, ° C. PNA/DNA (HypNA-pPNA 16-mer [1]): 45.1 °C and 45.4 °C
biotin-linker-[(HypNA-pPNA)-(pPNA-pPNA)]4-dT [1:3 Poly T PNA-analog] | – | – | – | – | – | Target: 16 mer poly A RNA Tm, ° C. (16 mer poly A RNA): 48.9 °C and 47.2 °C; Target: 16 mer poly A DNA Tm, ° C. (16 mer poly A DNA): 60.9 °C and 60.8 °C
biotin-linker-(HypNA-pPNA-pPNA)5-dT [1:2 Poly T PNA-analog] | – | – | – | – | – | Target: 16 mer poly A RNA Tm, ° C. (16 mer poly A RNA): 66.1 °C and 66.0 °C; Target: 16 mer poly A DNA Tm, ° C. (16 mer poly A DNA): 74.4 °C and 74.0 °C
5′-CAC TGA CTT GAG ACG A -3′ (SEQ ID NO: 24) (DNA CACTGACTTGAGACGA; DNA, backbone not given here) [Mismatch D, DNA oligomer with mismatch to the HypNA-pPNA 16-mer] | – | – | – | 54.3 °C and 54.9 °C | 60.8 °C and 62.7 °C | ΔTm PNA/DNA (HypNA-pPNA 16-mer [3]): 4 °C and 3 °C
5′-CAC TGA GTT CAG ACC A -3′ (SEQ ID NO: 29) (DNA CACTGAGTTCAGACCA; DNA, backbone not given here) [Mismatch K, DNA oligomer with mismatches to the HypNA-pPNA 16-mer] | 7 °C | 33.3 °C and 36.2 °C | 28.3 °C and 25.5 °C | – | – | –
20 (DNA CTGCAAAGCACACCATGA; DNA, backbone not given here) [Oligomer 20] | – | – | – | – | – | Td (degr. C.) [5]: 41 degr. C.; Tm (degr. C.) [5]: 40 degr. C.
5′-CGG TGA CTT GAG ACC A -3′ (SEQ ID NO: 25) (DNA CGGTGACTTGAGACCA; DNA, backbone not given here) [Mismatch E, DNA oligomer with mismatches to the HypNA-pPNA 16-mer] | – | 52.7 °C and 55.1 °C | 8.9 °C and 6.6 °C | No Tm | 56.5 °C and 56.8 °C | ΔTm DNA/DNA [4]: 7 °C
5′-CAC TGA GTT GGG ACC A -3′ (SEQ ID NO: 31) (DNA CACTGAGTTGGGACCA; DNA, backbone not given here) [Mismatch L, DNA oligomer with mismatches to the HypNA-pPNA 16-mer] | 24.3 °C | 47.4 °C and 50.0 °C | 14.2 °C and 11.7 °C | – | – | –
19 (DNA CTGCAAAGGACACCATGA; DNA, backbone not given here) [Oligomer 19] | – | – | – | – | – | Td (degr. C.) [5]: 55 degr. C.; Tm (degr. C.) [5]: 54 degr. C.
5′-CAC TGA CAT GAG ACC A -3′ (SEQ ID NO: 28) (DNA CACTGACATGAGACCA; DNA, backbone not given here) [Mismatch H, DNA oligomer with mismatch to the HypNA-pPNA 16-mer] | 5.5 °C and 6.1 °C | 50.0 °C and 53.4 °C | 11.6 °C and 8.3 °C | 41.3 °C and 43.5 °C | 55.1 °C and 53.3 °C | ΔTm PNA/DNA (HypNA-pPNA 16-mer [3]): 17 °C and 15 °C; ΔTm DNA/DNA [4]: 9 °C and 11 °C; Tm, ° C. PNA/DNA (HypNA-pPNA 16-mer [1]): 52.7 °C and 51.8 °C
5′-CAC TGA CGT GAG ACC A -3′ (SEQ ID NO: 26) (DNA CACTGACGTGAGACCA; DNA, backbone not given here) [Mismatch F, DNA oligomer with mismatch to the HypNA-pPNA 16-mer] | 14.5 °C and 14.2 °C | 52.6 °C and 55.6 °C | 9 °C and 6.1 °C | No Tm | 53.9 °C and 55.3 °C | ΔTm DNA/DNA [4]: 10 °C and 9 °C; Tm, ° C. PNA/DNA (HypNA-pPNA 16-mer [1]): 43.7 °C
5′-CAC TGA CTG GAG ACC A -3′ (SEQ ID NO: 27) (DNA CACTGACTGGAGACCA; DNA, backbone not given here) [Mismatch G, DNA oligomer with mismatch to the HypNA-pPNA 16-mer] | – | 52.2 °C and 52.6 °C | 9.4 °C and 9.1 °C | No Tm | 56.2 °C and 56.1 °C | ΔTm DNA/DNA [4]: 8 °C
5′-CAC TGA GTG GAG ACC A -3′ (SEQ ID NO: 22) (DNA CACTGAGTGGAGACCA; DNA, backbone not given here) [Mismatch B, DNA oligomer with mismatches to the HypNA-pPNA 16-mer] | – | 42.6 °C | 19 °C and 18.9 °C | No Tm | – | –
5′-CAC TGA CTT GAG ACC A -3′ (SEQ ID NO: 20) [No mismatches] | – | 61.7 °C and 61.6 °C | – | 59.1 °C and 58.0 °C | 63.8 °C and 64.5 °C and 64.0 °C | Tm, ° C. PNA/DNA (HypNA-pPNA 16-mer [1]): 57.9 °C and 58.2 °C

Source: patent US6962906B2, “Oligonucleotide analogues, methods of synthesis and methods of use” (Active Motif, priority 2000, dated 2005)
